Measurements reported in patent US20230135127A1, “COMPOSITIONS AND METHODS FOR DISEASE TREATMENT AND PREVENTION BY PH MODIFIERS AND/OR CELL PROLIFERATION INHIBITORS” (priority 2021, published 2023).
Counter-ions that a name gives are not always drawn. Like-named read-outs stand apart in the source and are kept apart here.

Columns and labels:
Raji cells = experiment: In vitro treatment of Raji tumor cells in FBS
Experimental: (§1) Jurkat and Raji tumor cell lines were maintained in Complete RPMI-1640 Medium (RPMI-1640 plus 1× GlutaMAX, 100 U/ml Pen-Strep (Gibco Life Technologies, Grand Island, N.Y., USA), and 5% heat-inactivated fetal bovine serum (FBS) (Atlanta Biologicals, Flowery Branch, Ga., USA)) at 37° C. and 5% CO2. The tumor cells were washed 3 times with saline plus 1% FBS before in vitro treatments with saline or saline plus pH modifiers.
(§2) For studies of the effects of pH modifier on proliferating cells, primary thymocytes or lymph node cells (4×10^6 cells/ml) were incubated in FBS comprising 10% of saline or 87.5 mM HCl, HOAc or NaOH prepared in saline in 37° C. water bath for 5 hours before analyses. The tumor cells (2×10^6 cells/ml) were incubated in FBS comprising 10% saline or 87.5 mM HCl, HOAc, or NaOH prepared in saline in 37° C. water bath for 3-5 hours.
Cells were washed 3 times with PBS then stained with Zombie viability dyes at room temperature for 20 minutes. At the end of incubation, 10% volume of FBS was added to absorb excess Zombie dyes. […] 7-AAD was added to the cells before analyzed by flow cytometry. […] Stained and unstained cells were analyzed on Accuri C6 Flow Cytomer (Accuri Cytometers, Inc., Ann Arbor, Mich.), FACS Canto (BD Bioscience, San Jose, Calif., USA) and Attune™ cytometer (Invitrogen, Carlsbad, Calif.). […]

[1] = test system: proliferating cells in the intestinal villi; experiment: Ki-67 immunohistochemistry of intestines; type: in vivo, mice; conditions: i.p. x3, one day after third dose
Experimental: (97). Briefly, the tissue sections were first deparaffinized and rehydrated.
Mice were i.p. treated with saline or saline plus HCl, HOAc or NaOH every other day for a total of 3 doses. One day after the third dose, mice were sacrificed, and tissue sections of the intestines were analyzed by immunohistochemistry staining of Ki-67 with hematoxylin counter staining.

[2] = test system: CD4 T cells in BALF and MLN; conditions: for Treg cells, % of total CD4 T cells, BALF: saline 7.46%; for Treg cells, % of total CD4 T cells, MLN: saline 11.80%
Experimental: (92, 93). […] For challenge, 2× concentrated solution was prepared by mixing 100 μg OVA protein and 1 μg […] peptide (Molecular Resources, Fort Collins, Colo., USA) in 30 μl saline per mouse, and kept on ice. Immediately before i.t. (intratracheal) injection the 30 μl 2×OVA solution was mixed with equal volume of 2× treatment solution (350 mM HOAc or HCl in saline) and instilled into the trachea of the mouse. The mice were challenged every other day for a total of 3 times.
The total mixture (60 μl) was instilled into the trachea of the mouse. The mice were treated every other day for a total of 3 times.
(§3) Cells were washed 3 times with PBS then stained with Zombie viability dyes at room temperature for 20 minutes. At the end of incubation, 10% volume of FBS was added to absorb excess Zombie dyes. After washes, the cells were stained with conjugated antibodies against surface antigens on ice. As specified in some experiments, the cells were subsequently stained with fluorochrome-conjugated Avidin. For Annexin V staining, cells were washed twice with plain PBS and once with Annexin V binging buffer (10 mM HEPES, pH7.4, 140 mM NaCl, 2.5 mM CaCl2)) after surface antigen staining, and incubated with fluorochrome-conjugated Annexin V in Annexin V binding buffer for 15 min at room temperature. The cells were washed twice in Annexin V binding buffer and resuspended in Annexin V binding buffer. 7-AAD was added to the cells before analyzed by flow cytometry. For Ki-67 and Foxp3 staining, lymphocytes (after Zombie dye and surface antigen staining) or tumor cells (without surface antigen staining) were fixed and permeabilized using Foxp3 staining buffer kit, then stained with PE-conjugated anti-mouse or human Ki-67 antibodies. (Biolegend, San Diego, Calif., USA). Stained and unstained cells were analyzed on Accuri C6 Flow Cytomer (Accuri Cytometers, Inc., Ann Arbor, Mich.), FACS Canto (BD Bioscience, San Jose, Calif., USA) and Attune™ cytometer (Invitrogen, Carlsbad, Calif.). Data analyses were carried out using FlowJo X.

primary thymocytes = experiment: In vitro treatment of thymocytes in FBS, Ki-67; type: cell-based, mouse; conditions: FBS with saline plus modifier, vs saline cultures
thymocytes = experiment: Asthma model: thymus and thymocyte populations in vivo; set-up: species or system mice; conditions: for size of the thymus vs saline (gross examination): 3 days after final challenge and treatment; for percentage of Ki-67hi total thymocytes: saline 22.7%; for percentage of DP (CD4+CD8+) thymocyte subpopulation: saline 69.7%
Experimental: as §3
In the asthma model, OVA sensitized mice were challenged with OVA by i.t. injection every other day for 3 times. The mice received i.t. treatment with saline, HCl or HOAc at the same time as challenge, or i.p. treatment with NaOH 1 hour after the challenge. Thymuses were harvested 3 days after the final challenge and treatment. […] (FIG. 20a). […] The thymocytes can be divided into Ki-67 high, low and negative populations. (FIG. 20b).

Jurkat cells = test system: Jurkat cells
Experimental: as §1, §2
as §3, with “For Ki-67 and Foxp3 staining, lymphocytes (after Zombie dye and surface antigen staining) or tumor cells (without surface antigen staining) were fixed and permeabilized using Foxp3 staining buffer kit, then stained with PE-conjugated anti-mouse or human Ki-67 antibodies. (Biolegend, San Diego, Calif., USA).” left out, “Data analyses were carried out using FlowJo X.” left out

[3] = test system: C57BL/6 mice immunized with MOG35-55 (EAE); conditions: for mice with clinical scores lower than at initiation of treatment: by day 4, 5 HCl mice, 9 HOAc mice; for average EAE clinical score: day 4 after initiation of treatment, saline 3.46; for inflammation in the spinal cords (histology): day 4 post initiation of treatment; for mice that reached clinical score of 4 or above: i.p. 87.5 mM, 4 doses from score 1.5-2.5, saline 10 of the 11
Experimental: Induction of experimental autoimmune encephalomyelitis (EAE), the mouse model of multiple sclerosis, was carried out as previously described. (94). (Also see https://hookelabs.com/protocols/eaeAI_C57BL6.html). […] The final antigen emulsion comprised 1.5 mg/ml of MOG35-55, 189 μg/ml of M. tuberculosis H37Ra and 50% (by volume) IFA.
Female C57BL/6 mice of 9 weeks old were acclimated at CRDAL for 1 week. On day 0, mice were immunized by s.c. (subcutaneous) injection of the antigen emulsion at 4 evenly distributed sites in the dorsal area (25 μl/site). Two hours later, the mice were i.p. injected with Pertussis Toxin (List Biological laboratories, Campbell, Calif., USA) freshly prepared in ice-cold PBS (200 ng in 100 μl PBS/mouse). On day 1, the mice received a second i.p. injection of Pertussis Toxin at the same dosage. […] Mice with clinical score of 3 or above were provided wet chows and hydrogels.
In the EAE model of Example 2, two types of experiments, i.e., therapeutic and preventive experiments, were carried out. For the therapeutic experiments, on the day when the mice first reached the clinical scores of 1.5 to 2.5, the mice received i.p. treatments with saline, or saline plus 87.5 mM HCl or HOAc. The mice received additional 3 i.p. treatments every other day. […] The mice received i.p. treatments every other day for additional 2 doses. Clinical scores of all mice were recorded daily during and after the treatment periods, but experimentation was terminated on mice that reached clinical score of 5. As specified in some experiments, mice were sacrificed, and spinal cords were collected for histology analyses.
Lungs (after BALF collection), spinal cords and intestines were harvested and fixed in 10% neural formalin (Fisher Scientific, Kalamazoo, Mich., USA). […] Periodic acid-Schiff (PAS) staining was also performed with the lung tissue sections to determine mucus secretion in the lungs as a result of the inflammatory infiltration.

[4] = FBS with 10% of 87.5 mM modifier, 37° C., 3-5 hours, saline 73.4%

SMILES	viability (live cells) of Raji cells (Raji cells; FBS with 10% of 87.5 mM modifier, 37° C., 3-5 hours, saline 89.4%)	Ki-67+ cells in the intestinal villi (IHC) [1]	Ki-67 staining intensity in intestines [1]	Treg cells, % of total CD4 T cells, BALF ([2]; BALF)	Treg cells, % of total CD4 T cells, MLN [2]	Ki-67+ cells in thymocytes after in vitro treatment (primary thymocytes)	size of the thymus vs saline (gross examination) (thymocytes)	viability (live cells) of Jurkat cells (Jurkat cells; [4])	mice with clinical scores lower than at initiation of treatment [3]	average EAE clinical score [3]	inflammation in the spinal cords (histology) [3]	mice that reached clinical score of 4 or above [3]	viability (live cells) of Raji cells (Raji cells; human, 8.75 mM)	decrease of total numbers of thymocytes vs saline (thymocytes; i.t. HOAc)	percentage of Ki-67hi total thymocytes (thymocytes)	percentage of DP (CD4+CD8+) thymocyte subpopulation (thymocytes)	viability (live cells) of Jurkat cells (Jurkat cells; human, 8.75 mM)	mice whose clinical score remained the same ([3]; mouse, in vivo)	CD44+ cells in Foxp3- CD4 T cells, BALF ([2]; BALF)	increase of total numbers of thymocytes vs saline (thymocytes; i.p. NaOH)
Cl [HCl, hydrochloric acid]	49.2%	more Ki-67^+ cells in the intestinal villi of saline- or NaOH-treated mice than the HCl- or HOAc-treated mice	stronger than those of the HCl- or HOAc-treated mice	4.45%	9.12%	almost no Ki-67^+ cells	dramatically smaller	22.1%	all	0.9	no obvious inflammation	none of the 5								
CC(=O)O [HOAc, acetic acid]		more Ki-67^+ cells in the intestinal villi of saline- or NaOH-treated mice than the HCl- or HOAc-treated mice	stronger than those of the HCl- or HOAc-treated mice	7.18%	11.53%	almost no Ki-67^+ cells	dramatically smaller		6	1.78	no obvious inflammation	1 of the 9	48.9%	~90%	15.4%	43.8%	34.3%	2		
[Na+].[OH-] [NaOH, sodium hydroxide]		more Ki-67^+ cells in the intestinal villi of saline- or NaOH-treated mice than the HCl- or HOAc-treated mice	strongest	6.97%	11.46%	higher percentages of Ki-67^+ cells	similar	70.4%							31.7%	77.6%			80.6%	about 28%
